Patent US10028961B2, “Therapeutically active compounds and their methods of use” (AGIOS PHARMACEUTICALS, INC., priority 2013, dated 2018)
pIC50: −log10 of the molar value.

Assays:
[1] = target: IDH1 wt/IDH1 R132C heterodimer (Homo sapiens (Human), UniProt O75874, R132C); assay: In vitro assay for IDH1m R132C inhibitors, IDH1 wt/IDH1 R132C heterodimer, NADPH depletion (diaphorase/resazurin); assay type: biochemical; conditions: NADPH/NADP
Protocol: The following describes the experimental procedures that can be used to obtain data on columns 2 and 4 of Table 4 and column 2 of Table 5.
In the primary reaction, the reduction of α-KG acid to 2-HG is accompanied by a concomitant oxidation of NADPH to NADP. The amount of NADPH remaining at the end of the reaction time is measured in a secondary diaphorase/resazurin reaction in which the NADPH is consumed in a 1:1 molar ratio with the conversion of resazurin to the highly fluorescent resorufin.
The mixture of compound, enzyme, and cofactor is pre-incubated at room temperature for 1 hr prior to the addition of alpha-ketoglutarate. To perform the secondary reaction, 10 uL of 1× buffer containing 36 μg/ml diaphorase and […] resazurin is added to the primary reaction and incubated for a further 5 minutes at 25° C. Florescence is read on a Spectramax platereader at Ex 544 Em 590. Compounds or compound dilutions are prepared in 100% DMSO concentration and diluted 1:50 into the final reaction. […] IC50s are determined.
IDH1 or IDH2 wildtype (wt) and mutant heterodimers are expressed and purified by methods known in the art. For example, IDH1wt/R132m heterodimer is expressed and purified as follows. Co-expression of IDH1wt-his and IDH1R132C-flag is carried out in sf9 insect cells. Cells (25 g) are resuspended in 250 ml of 50 mM Tirs, 500 mM NaCl, pH7.4, at 4° C. with stirring. Cells are disrupted with 4 passes through an M-Y110 Micro fluidizer (Microfluidics) set to 500 psi, and then centrifuged at 22,000 rcf for 20 min at 4° C. The supernatant is harvested and loaded at 15 cm/h on a Histrap FF 5*1 ml column (GE) which is equilibrated with 50 mM Tirs, 500 mM NaCl, pH7.4. Host cell contaminants are removed by washing the column with equilibration buffer followed by equilibration buffer containing 20 mM imidazole and 60 mM imidazole to baseline. IDH1wt-his homodimer and IDH1wt-his/IDH1R132C-flag are eluted by equilibration buffer containing 250 mM imidazole. Fractions eluted by 250 mM imidazole are pooled together and loaded at 15 cm/h onto a column pre-packed with 10 ml ANTI-FLAG® M2 Affinity Gel (Sigma), the column is equilibrated with 50 mM Tris, 500 mM NaCl, pH7.4. After washing with equilibration buffer, IDH1wt-his/IDH1R132C-flag heterodimer is eluted by equilibration buffer containing flag peptide (0.2 mg/ml). Aliquots of IDH1wt-his/IDH1R132C-flag are flash frozen in liquid N2 and stored at −80° C. Same conditions are used for the purification of IDH1wt-his/IDH1R132H-flag.

[2] = target: IDH1 wt/IDH1 R132H heterodimer (Homo sapiens (Human), UniProt O75874, R132H); assay: In vitro assay for IDH1m R132H inhibitors, IDH1 wt/IDH1 R132H heterodimer, NADPH depletion (diaphorase/resazurin); assay type: biochemical; conditions: IDH1 wt/R132H heterodimer, NADPH/NADP, not saturated; read-out: IDH1 wt/R132H NADPH/NADP IC50 not saturated
How it was run: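 Purified IDH1wt-his/IDH1R132H-flag heterodimer (sf9 co-expression) pre-incubated 1 hr at room temperature with compound and NADPH before α-KG addition. Remaining NADPH read by diaphorase/resazurin conversion to fluorescent resorufin, 5 min at 25° C. Compounds diluted 1:50 from DMSO; IC50 determined.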

IDH2 R140Q = IDH2 R140Q (Homo sapiens (Human), UniProt P48735, R140Q); assay: In vitro assay for IDH2m R140Q inhibitors, cofactor depletion assay; assay type: biochemical; conditions: IDH2 R140Q enzyme
How it was run: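 Remaining cofactor measured fluorimetrically: diaphorase/resazurin Stop Mix […], halting the reaction. Before that, mutant enzyme and compound sat 1 h at RT, then substrate mix (4 μM NADPH, 1.6 mM α-KG) was added for 16 h at RT.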

[3] = test system: U87MG pLVX-IDH2 R140Q-neo cells; assay: U87MG pLVX-IDH2 R140Q-neo cell based assay, 2-HG by LC-MS; conditions: Homo sapiens, U-87 MG
[4] = test system: Neurosphere cells (TS603); assay: Cellular assay for IDH1m R132H inhibitors, 2-HG by LC-MS in neurosphere cells (TS603); assay type: cell-based; conditions: 2-HG in media at 48 hours
How it was run: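 TS603 neurosphere cells in NeuroCult medium were dosed with compound (0.25% DMSO final) at 37 C, 5% CO2. After 48 hours, medium 2-HG was measured by LC-MS. At 72 hours, viability was read by CellTiter-Glo luminescence.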

[5] = target: IDH1-R132H homodimer enzyme (Homo sapiens (Human), UniProt O75874, R132H); assay: In vitro assay IDH1-R132H homodimer, NADPH depletion assay with NADPH/NADP preincubation; assay type: biochemical; conditions: 5 μM NADPH and 37.5 μM NADP
How it was run: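 Conversion of alpha-ketoglutarate to 2-hydroxyglutarate tracked by NADPH depletion. Reaction started with 5 mM alpha-ketoglutarate plus NADPH substrate mix (50 μl total), 60 min at room temperature. Leftover NADPH quantified via diaphorase/resazurin fluorescence.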

HT1080 cells = assay: Cellular assay for IDH1m R132C inhibitors, 2-HG by LC-MS in HT1080 cells; assay type: cell-based; conditions: Homo sapiens, HT-1080
How it was run: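 HT1080 cells at 5000 cells/well were treated with compound (0.2% DMSO final). After 48 h, 2-HG in the medium was measured by LC-MS. Viability was read by CellTiter-Glo luminescence at 72 h.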

Sequence of IDH1 wt/IDH1 R132H heterodimer (O75874 whole entry R132H): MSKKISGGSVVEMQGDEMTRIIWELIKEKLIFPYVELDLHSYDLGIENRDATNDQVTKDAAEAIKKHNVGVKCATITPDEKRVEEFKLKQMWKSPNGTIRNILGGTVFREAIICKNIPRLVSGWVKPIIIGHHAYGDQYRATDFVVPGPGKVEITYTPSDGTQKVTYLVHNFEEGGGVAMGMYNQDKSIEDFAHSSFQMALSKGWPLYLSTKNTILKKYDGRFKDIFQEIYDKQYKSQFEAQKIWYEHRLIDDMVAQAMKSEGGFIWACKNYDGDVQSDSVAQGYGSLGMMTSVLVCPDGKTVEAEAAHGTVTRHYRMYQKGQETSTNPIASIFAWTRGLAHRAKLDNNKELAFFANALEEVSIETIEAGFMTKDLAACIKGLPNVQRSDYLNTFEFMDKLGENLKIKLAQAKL
Sequence of IDH1 wt/IDH1 R132H heterodimer (O75874 whole entry, stated change not applied): as the sequence (O75874 whole entry R132H) above, with H132R counted along it
Sequence of IDH1-R132H homodimer enzyme (O75874 whole entry R132H): as the sequence (O75874 whole entry R132H) above
Sequence of IDH1 wt/IDH1 R132C heterodimer (O75874 whole entry R132C): as the sequence (O75874 whole entry R132H) above, with H132C counted along it
Sequence of IDH1 wt/IDH1 R132C heterodimer (O75874 whole entry, stated change not applied): as the sequence (O75874 whole entry R132H) above, with H132R counted along it
Sequence of IDH2 R140Q (P48735 40-452 R140Q): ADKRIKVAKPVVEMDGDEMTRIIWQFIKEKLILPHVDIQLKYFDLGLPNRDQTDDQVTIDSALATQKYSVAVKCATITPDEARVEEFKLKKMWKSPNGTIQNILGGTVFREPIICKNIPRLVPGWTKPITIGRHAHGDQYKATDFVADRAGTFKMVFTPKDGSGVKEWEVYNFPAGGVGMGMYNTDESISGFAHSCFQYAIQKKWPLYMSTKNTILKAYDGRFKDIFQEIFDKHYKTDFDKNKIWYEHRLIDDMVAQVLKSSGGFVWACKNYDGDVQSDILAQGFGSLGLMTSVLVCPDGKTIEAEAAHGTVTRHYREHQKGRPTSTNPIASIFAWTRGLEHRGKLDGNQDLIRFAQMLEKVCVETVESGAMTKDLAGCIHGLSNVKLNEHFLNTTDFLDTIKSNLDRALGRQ

| Structure (SMILES) | pIC50 [1] | pIC50 [2] | pIC50 (IDH2 R140Q) | pIC50 [3] | pIC50 [4] | pIC50 [5] | pIC50 (HT1080 cells) |
| --- | --- | --- | --- | --- | --- | --- | --- |
| FC1(F)CCC(Nc2nc(NC3CCOC3)nc(-c3cccc(C(F)(F)F)n3)n2)C1 (stereo not drawn) [Compound 52] | > 7.30 | 7.00 to 7.30 |  |  |  |  |  |
| CC(C)(C)OC(=O)N1CCC(Nc2nc(NC3CCC(F)(F)C3)nc(-c3cccc(C(F)(F)F)n3)n2)C1 (stereo not drawn) [Compound 53] | 7.00 to 7.30 | 6.00 to 7.00 |  |  |  |  |  |
| CC(=O)N1CCC(Nc2nc(NC3CCC(F)(F)C3)nc(-c3cccc(C(F)(F)F)n3)n2)C1 (stereo not drawn) [Compound 55] | 7.00 to 7.30 | 6.00 to 7.00 |  |  |  |  |  |
| CS(=O)(=O)N1CCC(Nc2nc(NC3CCC(F)(F)C3)nc(-c3cccc(C(F)(F)F)n3)n2)C1 (stereo not drawn) [Compound 56] | > 7.30 | 7.00 to 7.30 |  |  |  |  |  |
| C[C@@H](Nc1nc(NC2CC3(C2)CC(F)(F)C3)nc(-c2cccc(C(F)(F)F)n2)n1)C1CC1 [Compound 58] | > 7.30 | > 7.30 |  |  |  |  |  |
| CC(C)(C)OC(=O)N1CCC(Nc2nc(NC3CCC(F)(F)C3)nc(-c3cccc(C(F)(F)F)n3)n2)C1 (stereo not drawn) [Compound 90] | 7.00 to 7.30 | 6.00 to 7.00 |  |  |  |  |  |
| FC1(F)CCC(Nc2nc(NC3CCNC3)nc(-c3cccc(C(F)(F)F)n3)n2)C1 (stereo not drawn) [Compound 91] | ≤ 6.00 | < 6.00 |  |  |  |  |  |
| C[C@@H](Nc1nc(N[C@H](C)C2CC2)nc(-c2cccnc2)n1)C1CC1 [Compound 92, N^2,N^4-bis((R)-1-cyclopropylethyl)-6-(pyridin-3-yl)-1,3,5-triazine-2,4-diamine] | ≤ 6.00 | < 6.00 |  |  |  |  |  |
| Fc1cc(F)cc(Nc2nc(NC3CCC(F)(F)CC3)nc(-c3cccc(C(F)(F)F)n3)n2)c1 [Compound 125] | > 7.30 | > 7.30 | > 7.30 | > 7.30 | > 7.30 |  |  |
| FC(F)c1csc(-c2nc(NC3CCC(F)(F)CC3)nc(NC3CCC(F)(F)CC3)n2)n1 [Compound 205] |  | > 7.30 | > 7.30 | > 7.30 | > 7.30 | 6.00 to 7.00 | 7.00 to 7.30 |
| C[C@@H](Nc1nc(Nc2ccnc(C#N)c2)nc(-n2ccc(C(F)(F)F)n2)n1)C(F)(F)F [Compound 207] |  | > 7.30 | > 7.30 | > 7.30 | > 7.30 | 7.00 to 7.30 | 6.00 to 7.00 |
| CC(F)(F)c1nc(-c2nc(NC3CC(F)(F)C3)nc(NC3CC(F)(F)C3)n2)cs1 [Compound 209] |  | > 7.30 | > 7.30 | > 7.30 | > 7.30 | 6.00 to 7.00 | 6.00 to 7.00 |
| N#Cc1cc(Nc2nc(NC3CC(F)(F)C3)nc(-n3ccc(C(F)(F)F)n3)n2)ccn1 [Compound 210] |  | > 7.30 | > 7.30 | > 7.30 | > 7.30 | 7.00 to 7.30 | 6.00 to 7.00 |
| CC(F)(F)c1cccc(-c2nc(Nc3ccnc(C4(C#N)CC4)c3)nc(NC3CCC(F)(F)CC3)n2)n1 [Compound 211] |  | > 7.30 | > 7.30 | > 7.30 | > 7.30 | 6.00 to 7.00 | 6.00 to 7.00 |
| FC1(F)CCC(Nc2nc(NC3CCC(F)(F)CC3)nc(-c3cccc(Cl)n3)n2)CC1 [Compound 212] |  | > 7.30 | > 7.30 | > 7.30 | > 7.30 | 6.00 to 7.00 | 7.00 to 7.30 |
| N#CC1(c2cc(Nc3nc(NCC(F)(F)F)nc(-c4cccc(Cl)n4)n3)ccn2)CC1 [Compound 215] |  | > 7.30 | > 7.30 | > 7.30 | > 7.30 | 7.00 to 7.30 | 6.00 to 7.00 |
| FC1(F)CC(CNc2nc(NCC3CC(F)(F)C3)nc(-c3cccc(C(F)(F)F)n3)n2)C1 [Compound 216] |  | > 7.30 | > 7.30 | > 7.30 | > 7.30 | 6.00 to 7.00 | 6.00 to 7.00 |
| CC(Nc1nc(Nc2ccnc(-c3ccccc3)c2)nc(-c2cccc(C(F)(F)F)n2)n1)C(F)(F)F (stereo not drawn) [Compound 217] |  | > 7.30 | > 7.30 | > 7.30 | > 7.30 | 7.00 to 7.30 | 6.00 to 7.00 |
| FC1(F)CCC(Nc2nc(Nc3ccnc(-c4ccccc4)c3)nc(-c3cccc(C(F)(F)F)n3)n2)CC1 [Compound 220] |  | > 7.30 | 7.00 to 7.30 | 7.00 to 7.30 | > 7.30 | 7.00 to 7.30 | 6.00 to 7.00 |
| FC1(F)CC(CNc2nc(Nc3ccnc(C(F)(F)F)c3)nc(-c3cccc(C(F)(F)F)n3)n2)C1 [Compound 221] |  | > 7.30 | > 7.30 | > 7.30 | > 7.30 | 6.00 to 7.00 | < 6.00 |
| FC(F)(F)CNc1nc(Nc2ccnc(C(F)(F)F)c2)nc(-c2cccc(C(F)(F)F)n2)n1 [Compound 232] |  | > 7.30 | > 7.30 | > 7.30 | > 7.30 | 6.00 to 7.00 | < 6.00 |
| N#Cc1ccc2c(c1)CC(Nc1nc(NC3CCC(F)(F)C3)nc(-c3cccc(C(F)(F)F)n3)n1)C2 (stereo not drawn) [Compound 242] | 7.00 to 7.30 | 7.00 to 7.30 |  |  |  | 6.00 to 7.00 |  |
| Nc1ccc(F)c(-c2nc(NC3CCC(F)(F)CC3)nc(NC3CCC(F)(F)CC3)n2)n1 [Compound 249] |  | 7.00 to 7.30 | > 7.30 | 6.00 to 7.00 | 7.00 to 7.30 | < 6.00 | 6.00 to 7.00 |
| FC1(F)CC(Nc2nc(NC3CC(F)(F)C3)nc(-c3ccnc(C(F)(F)F)n3)n2)C1 [Compound 251] |  | 7.00 to 7.30 | > 7.30 | 6.00 to 7.00 | > 7.30 | 6.00 to 7.00 | 6.00 to 7.00 |
| Fc1ccc(F)c(-c2nc(NC3CCC(F)(F)CC3)nc(NC3CCC(F)(F)CC3)n2)n1 [Compound 276] | 6.00 to 7.00 | 6.00 to 7.00 |  |  |  | < 6.00 |  |
| FC1(F)CCC(Nc2nc(NC3CCC(F)(F)CC3)nc(-c3cccc(OC(F)(F)F)n3)n2)CC1 [Compound 296] | ≤ 6.00 | 6.00 to 7.00 |  |  |  | < 6.00 |  |
| FC1(F)CCC(Nc2nc(NC3CCC(F)(F)CC3)nc(-c3c[nH]nc3C(F)(F)F)n2)CC1 [Compound 297] | 6.00 to 7.00 | 6.00 to 7.00 |  |  |  | < 6.00 |  |
| Cc1nc(-c2nc(NC3CC(F)(F)C3)nc(NC3CC(F)(F)C3)n2)co1 [Compound 301] | ≤ 6.00 | 6.00 to 7.00 |  |  |  | < 6.00 |  |
| Cc1cc(-c2nc(NC3CC(F)(F)C3)nc(NC3CC(F)(F)C3)n2)no1 [Compound 311] | ≤ 6.00 | < 6.00 |  |  |  | < 6.00 |  |
| COc1ccc(F)c(-c2nc(NC3CCC(F)(F)CC3)nc(NC3CCC(F)(F)CC3)n2)n1 [Compound 321] | ≤ 6.00 | < 6.00 |  |  |  | < 6.00 |  |
